In patent publication US20100099756A1, “USES OF INCENSOLE, INCENSOLE ACETATE AND DERIVATIVES THEREOF” (YISSUM RESEARCH DEVELOPMENT COMPANY OF THE HEBREW …, priority 2006, published 2010):

Legend:
[1] = target: T1, TRPV3 (Mus musculus, UniProt Q8K424); test: Porsolt forced swimming test in WT and TRPV3−/− mice; assay type: in vivo, C57BL/6 mice; design: from tissue; host or cells: whole animal, wild type C57BL/6 female mice (TRPV3 KO as control); conditions: 75 mg/kg
T1 sequence (Q8K424 1-791): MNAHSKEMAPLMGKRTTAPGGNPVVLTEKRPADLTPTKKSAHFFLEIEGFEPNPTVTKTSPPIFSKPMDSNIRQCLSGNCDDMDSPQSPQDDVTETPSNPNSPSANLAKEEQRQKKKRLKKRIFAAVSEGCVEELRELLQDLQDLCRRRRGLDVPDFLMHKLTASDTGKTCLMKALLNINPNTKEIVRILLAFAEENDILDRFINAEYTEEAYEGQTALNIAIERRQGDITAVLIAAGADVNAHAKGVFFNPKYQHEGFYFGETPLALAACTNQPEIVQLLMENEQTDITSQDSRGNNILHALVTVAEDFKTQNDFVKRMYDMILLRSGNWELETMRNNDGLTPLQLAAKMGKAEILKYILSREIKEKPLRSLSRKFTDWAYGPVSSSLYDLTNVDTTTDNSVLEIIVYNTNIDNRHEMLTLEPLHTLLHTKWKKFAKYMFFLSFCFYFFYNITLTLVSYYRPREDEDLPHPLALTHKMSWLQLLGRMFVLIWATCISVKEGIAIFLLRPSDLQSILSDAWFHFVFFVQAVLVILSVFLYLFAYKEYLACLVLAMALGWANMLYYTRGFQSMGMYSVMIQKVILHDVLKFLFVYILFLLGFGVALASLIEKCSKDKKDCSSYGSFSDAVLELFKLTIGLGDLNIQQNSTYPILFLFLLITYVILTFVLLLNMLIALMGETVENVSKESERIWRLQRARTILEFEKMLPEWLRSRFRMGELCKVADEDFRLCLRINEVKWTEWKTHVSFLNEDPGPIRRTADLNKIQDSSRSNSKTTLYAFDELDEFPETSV
Protocol: Wild type and TRPV3^−/− mice (18-20 weeks old) were injected with vehicle (isopropanol:emulphor:saline=1:1:18) or IA (75 mg/kg). 30 min later they were tested in a, the elevated plus maze (5 min), followed by b, 9 min exposure to the Porsolt forced-swimming test. […] Data are presented as means±SEM; n=4-5. * p<0.05, compared to WT-Vehicle-injected mice (Bonferroni post hoc test). ** p<0.01, compared to WT-Vehicle-injected mice (Bonferroni post hoc test).
Animals and procedures. Female Sabra mice (Harlan, Israel, 15-20 weeks old) and wild type C57BL/6 or TRPV3 KO female mice (18-20 weeks old) [Chung, M. K., Lee, H., Mizuno, A., Suzuki, M. & Caterina, M. J. TRPV3 and TRPV4 mediate warmth-evoked currents in primary mouse keratinocytes. J. Biol. Chem. 279, 21569-21575 (2004)] were used for behavioral assessments. 10 mice were housed in each cage. The animal care and protocols met the guidelines of the U.S. National Institutes of Health, detailed in the Guide for the Care and Use of Laboratory Animals, and were applied in conformity with the Institutional Ethics Committees. For the c-Fos immunostaining, female Sabra mice (see above) were used. Temperature in the animal room was maintained between 20-22° C., the light cycle was 12 h lights on (8:00-20:00 h); 12 h lights off (20:00-8:00 h). […]

[2] = system: immobility; test: Porsolt forced swimming test; assay type: in vivo, female Sabra mice; conditions: recorded over 9 minutes, 50 mg/kg i.p.
[3] = system: closed head injury; test: Object recognition test after CHI; assay type: in vivo, mice
Protocol: (§1) This effect was sustained from 24 h to 21 days following injury as determined by the Mann-Whitney test (n=9-10 per group; * p<0.01; **p<0.001, as compared to vehicle treated, at the same day). (B) Mice were subjected to the object recognition test (Example 6) 3, 7, 14 and 21 days after CHI. The absolute time spent exploring each of the two objects was recorded and the % time calculated. At baseline (bl), when presented with two identical objects, exploration time of each object was about 50% in both groups. In the test (T) situation, after one of the objects was replaced by a novel one the % time spent exploring the new object was calculated.
Memory function was assessed by ORT (Object Recognition Test) and the results are depicted in FIG. 5B. […] Both groups spent equal time at the two objects (˜50% of total exploration time) at the baseline measurements, at all times post CHI. […] At 21 days, it appears that the vehicle-treated mice regained their ability, and exploration time reached a similar level to that of the IA-treated mice.

[4] = target: TRPV1 (Homo sapiens, UniProt Q8NER1); test: Calcium imaging of TRPV1-transfected HEK293 cells; assay type: cell-based; conditions: IA 100 μM, compared to vehicle
Chain of TRPV1 (Q8NER1 whole entry): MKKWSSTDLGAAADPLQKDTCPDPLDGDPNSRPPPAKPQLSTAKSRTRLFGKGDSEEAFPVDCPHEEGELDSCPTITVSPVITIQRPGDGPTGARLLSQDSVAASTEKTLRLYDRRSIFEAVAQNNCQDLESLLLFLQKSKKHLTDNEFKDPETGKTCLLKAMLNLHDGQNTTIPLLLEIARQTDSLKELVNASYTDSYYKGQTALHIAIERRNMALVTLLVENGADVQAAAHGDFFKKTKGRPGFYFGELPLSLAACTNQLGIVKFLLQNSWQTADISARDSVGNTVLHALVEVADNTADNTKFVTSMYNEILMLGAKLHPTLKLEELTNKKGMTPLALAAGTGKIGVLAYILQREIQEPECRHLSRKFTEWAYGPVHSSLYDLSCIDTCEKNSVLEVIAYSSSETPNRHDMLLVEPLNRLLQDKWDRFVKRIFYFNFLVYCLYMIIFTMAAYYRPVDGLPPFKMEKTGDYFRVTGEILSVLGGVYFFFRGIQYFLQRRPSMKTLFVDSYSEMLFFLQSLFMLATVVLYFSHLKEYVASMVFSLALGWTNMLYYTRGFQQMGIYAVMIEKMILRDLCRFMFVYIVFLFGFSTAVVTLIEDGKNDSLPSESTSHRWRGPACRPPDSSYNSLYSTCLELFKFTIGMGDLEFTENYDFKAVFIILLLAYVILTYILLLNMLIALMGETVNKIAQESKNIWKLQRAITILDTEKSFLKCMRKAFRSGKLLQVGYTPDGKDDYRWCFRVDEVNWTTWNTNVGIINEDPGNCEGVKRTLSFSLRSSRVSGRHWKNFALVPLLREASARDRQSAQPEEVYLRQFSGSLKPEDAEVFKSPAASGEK
Protocol: All error bars indicate SEM; p values in all subfigures but c represent analysis with one-way ANOVA Bonferroni's post hoc.
Human HEK 293 cells stably expressing TRPV1 were a kind gift from Merck Research Laboratories (Whitehouse Station, N.J.). Cells were cultured in minimal essential medium, Eagle, modified with non-essential amino acids, 1 mM sodium pyruvate, 2 mM L-glutamine and 1.5 g/L sodium bicarbonate (ATCC, Mabassas, Va.), containing 1% Penicillin-streptomycin, and 10% foetal bovine serum. Cells were passaged three times a week using Trypsin-EDTA 1× (Invitrogen, Carlsbad, Calif.) and grown under 5% CO2 at 37° C.
Calcium imaging of HEK 293 cells. TRPV1, TRPV3, and TRPV4 expressing HEK293 cells were plated 24-48 h before imaging in 96 well plates, loaded with 3 μM Fura-2 AM and imaged as previously described [O'dell, D. K., Rimmerman, N., Pickens, S. R. & Walker J. M. Fatty acyl amides of endogenous tetrahydroisoquinolines are active at the recombinant human TRPV1 receptor. […] Med. Chem. 15, 6164-6169 (2007)].

[5] = system: closed head injury; test: Neurological severity score (NSS) recovery after closed head injury (CHI); assay type: in vivo, mice; conditions: 50 mg/kg i.p.
Protocol: as §1
At 1 h after CHI, the functional status of the mice was evaluated according to a set of 10 neurobehavioral tasks (neurological severity score, NSS) that tests reflexes, alertness coordination, and motor abilities. One point was awarded for absence of reflex or failure to perform a particular task. […] Mice were equally divided to vehicle\ IA groups according to their NSS scores. Only mice with NSS>4 at 1 h after injury were included in the study. […] Recovery (ΔNSSt) was defined as the difference between NSS1h and NSS measured at any later time point and was determined at several time points up to 21 days following CHI.

## CC(=O)OC1CC/C(C)=C/CC/C(C)=C/CC2(C(C)C)CCC1(C)O2 (centres unmarked) [IA, incensole acetate]
[1]
  immobility time, WT mice: significantly reduced the immobility time
[2]
  immobility in the Porsolt forced-swim test: significantly reduced the immobility
[3]; 7 and 14 days post injury
  time exploring the new object, persistence of the effect: sustained for 7 and 14 days
[3]; 3 days post injury, 50 mg/kg, P=0.01
  time exploring the new object: significantly longer times exploring the new object
[3]; non-injured mice, data not shown
  memory function of naïve, non-injured mice: not affected
[4]
  calcium influx in TRPV1-transfected HEK293 cells: very small influx of calcium
[5]; 24 h after injury, P=0.002 vs vehicle
  ΔNSS (recovery of motor ability): 1.00±0.12
[5]; up to 3 weeks post injury, vs vehicle
  ΔNSS at subsequent time points: significantly higher
